{"source": "patent US8278278B2", "about": "“Cell proliferation reducing cancer specific PCNA peptides” (Indiana University Research and Technology Corporation, priority 2008, dated 2012)", "key": {"[1]": {"test_system": "U937 monocytic lymphoma cells", "assay": "Cytotoxicity/apoptosis of R9-linked caPCNA peptides in U937 cells by flow cytometry", "format": "cell-based", "details": "24 hours; for % cancer cell death: 30 μM of peptide, flow cytometry; for cytotoxic activity / apoptosis: R9 up to 100 μM, caPeptide up to 200 μM", "description": "First, it was tested whether or not the R9 sequence alone had any cytotoxic effect in U937 cells. The U937 cells were treated with up to 100 μM of the R9 sequence for 24 hours.\nOnce it was established that the R9 sequence promoted cellular uptake of the peptide, increasing amounts of R9-caPep were added to U937 cells to determine if the peptide's uptake would have any cytotoxic effect.\nTo verify that the cytotoxicity of the R9-caPep was due to the PCNA peptide sequence itself, a scrambled peptide using the same eight amino acids, R9-Scrambled, was prepared (Table 3).\nThe cancer associated epitope of PCNA is also part of the flexible IDCL region of PCNA. This region of PCNA is considered to have a disordered structure. Disordered regions in proteins are usually associated with protein-to-protein interaction sites. […] To determine which amino acids in the R9-caPep sequence are necessary for binding of the peptide to these proteins, peptide constructs were generated that mutated each amino acid individually to an alanine (Table 3). Each alanine mutant peptide of caPCNA was used to treat U937 cells for 24 hours. An amino acid that is important to protein binding would presumably show decreased cell cytotoxicity when it is substituted with an alanine. Those amino acids which are not critical for binding could be anticipated to show a cytotoxic level similar to that of the unsubstituted peptide. For a comparison of the potential cytotoxic effect of each of the alanine substituted R9-linked caPeptides, U937 cells were treated with 30 μM of peptide. […] It was observed that peptides containing an alanine substituted at position aa126 or aa133 show little cytotoxic activity and therefore were likely important for the peptide's activity."}, "U937 cells [2]": {"test_system": "U937 cells", "assay": "Cellular uptake and nuclear localization by fluorescence microscopy", "format": "cell-based", "details": "10 μM, 24 hours, DAPI overlay", "description": "To test cellular uptake and nuclear localization of R9-caPep, an N-terminal fluorescein isothiocyanate (FITC) residue was attached to allow microscopic visualization of the peptide's cellular location. The U937 cells were treated with 10 μM of FITC-R9-caPep for 24 hours. The cells were then collected onto a poly-L-lysine coated slide by cytospin and mounted with a media containing the DNA staining dye 4′-6-Diamidino-2-phenylindole (DAPI), which complexes with double stranded DNA and indicates the location of the nucleus. A Leica DM500 fluorescent microscope was used to visualize the staining."}, "[3]": {"test_system": "HCC1937+wild-type BRCA1 cells", "assay": "MTT growth inhibition assay, HCC1937+wild-type BRCA1 cells", "format": "cell-based", "description": "As a genetically matched control, wild-type BRCA1 has been transduced into HCC1937 cells (referred to as HCC1937+wild-type BRCA1). HCC1937+wild-type BRCA1 cells were selected for maintenance of the vector using 1 μg/mL puromycin. All cells in these assays were used at passage numbers <25.\nMTT [3-(4,5-dimethylthiazol-2-yl)-2,5-diphenyltetrazolium bromide] assays were conducted with caPeptides at a variety of time points both alone and in combination with a DNA damaging agent e.g., cisplatin in HCC1937 and HCC1937+wild-type BRCA1 cells. […] The color can then be quantified using a simple colorimetric assay. The results are read on a multiwall scanning spectrophotometer (ELISA reader). […]\nMTT assays: The efficacy of caPeptides were tested using the MTT assays: HCC1937 and HCC137+wildtype BRCA1 cells were grown in DMEM 1× (supplemented with 10% fetal bovine serum and 5% penicillin/streptomycin) and were plated at a densities of 5.5×10^3 or 7×10^3, respectively, in 96 well plates (100 μL total volume per well) and allowed to attach overnight in a 37° C. incubator (5% CO2). […] Plates were rocked at room temperature for five minutes to dissolve crystals and transferred to an ELISA plate reader. Absorbance was measured at 550 nm. […]"}, "[4]": {"test_system": "HCC1937 cells lacking BRCA1", "assay": "MTT growth inhibition assay, HCC1937 cells lacking BRCA1", "format": "cell-based", "details": "for efficacy in MTT assay compared with the other peptides: HCC1937 and HCC1937+wild-type BRCA1 cells, 24 hours", "description": "MTT [3-(4,5-dimethylthiazol-2-yl)-2,5-diphenyltetrazolium bromide] assays were conducted with caPeptides at a variety of time points both alone and in combination with a DNA damaging agent e.g., cisplatin in HCC1937 and HCC1937+wild-type BRCA1 cells. The MTT assay is based on the ability of a mitochondrial dehydrogenase enzyme from viable cells to cleave the tetrazolium rings of the pale yellow MTT dye and form dark blue formazan crystals. These formazan crystals are largely impermeable to cell membranes and thus accumulate within healthy cells. Solubilization of the cells by the addition of a detergent results in the liberation and solubilization of the crystals. The number of proliferating cells is directly proportional to the level of formazan product created. The color can then be quantified using a simple colorimetric assay. The results are read on a multiwall scanning spectrophotometer (ELISA reader). The peptides used in these experiments including caPeptide, Q131A ([…] (SEQ ID NO: 5)), and P129A ([…] (SEQ ID NO: 3)) were ordered and obtained from Anaspec (Fremont, Calif.). caPeptide was dissolved in sterile 1× PBS solution to create a 1.5 mM stock concentration. caPeptides with alanine substitutions (e.g., P129A (SEQ ID NO: 3) and Q131A (SEQ ID NO: 5)) were dissolved in sterile 1×PBS solution to create 1.0 mM stock solutions.\nMTT assays: The efficacy of caPeptides were tested using the MTT assays: HCC1937 and HCC137+wildtype BRCA1 cells were grown in DMEM 1× (supplemented with 10% fetal bovine serum and 5% penicillin/streptomycin) and were plated at a densities of 5.5×10^3 or 7×10^3, respectively, in 96 well plates (100 μL total volume per well) and allowed to attach overnight in a 37° C. incubator (5% CO2). Then, caPeptide stock solution was diluted to final working concentrations in DMEM 1× (10% fetal bovine serum and 5% penicillin/streptomycin) of 150 μM, 100 μM, 75 μM, 50 μM, and 25 μM. Media was removed from cells and replaced with media containing caPeptide at various concentrations (200 μL total volume per well). Cells were cultured with caPeptide-containing media for 24, 48 or 72 hours. At the appropriate treatment timepoint, 20 μL MTT (5 mg/mL in PBS) reagent was added to each well and plates were incubated for an additional 4 hours. Media/dye solution was then aspirated and 200 μL DMSO was added to each well. Plates were rocked at room temperature for five minutes to dissolve crystals and transferred to an ELISA plate reader. Absorbance was measured at 550 nm. The extent to which caPeptides inhibited cell proliferation was calculated as a percentage of the absorbance in each well containing caPeptide relative to wells containing no caPeptide (negative control) for both HCC1937 and HCC1937+wild-type BRCA1 cells. […]"}, "U937 cells [5]": {"test_system": "U937 cells", "assay": "cells", "details": "Homo sapiens, U-937, 24 h"}, "U937 cells [6]": {"test_system": "U937 cells", "details": "100 nM of doxorubicin alone"}, "MCF 7 (breast cancer)": {"test_system": "MCF 7 (breast cancer)", "assay": "Cell death by flow cytometry in malignant breast cells", "format": "cell-based", "details": "50 μM, 48 hours", "description": "The R9-caPeptide was evaluated for cytotoxic effects in non-malignant (MCF 10A) and malignant (MCF 7) breast cells (Table 6). The cells were treated with 50 μM R9-caPeptide for 48 hours and the extent of cell death was evaluated by flow cytometry. […] The significant level of cytotoxicity in breast cancer cells is likely due to enhanced binding interaction of caPeptide with specific DNA repair proteins in these cells, as indicated for example by the observed preferential binding of caPCNA for XPG protein, leading to an inhibition of DNA repair in these cells, and ultimately cell death."}}, "note": "Entries after “also recorded” stand apart in the source; their conditions may differ. Where two headings read alike, the source gives them in different places. Non-standard residues stand in square brackets, D forms with d. Residues, ends and D or L forms follow the SMILES beside them. No end group written: not given here. *: point of attachment. FITC = O=C1OC2(c3ccc(O)cc3Oc3cc(O)ccc32)c2ccc(NC(=S)*)cc21", "data": [{"compound": "RRRRRRRRRCCLGIAEQEY [A4-sub. Peptide]", "values": [{"measurement": "% cancer cell death", "setting": "[1]", "value": "80 ± 7", "unit": "%"}]}, {"compound": "RRRRRRRRR [R9, reference compound]", "values": [{"measurement": "cytotoxic activity / apoptosis", "setting": "[1]", "value": "did not promote apoptosis; also recorded: did not cause an increase apoptosis"}]}, {"compound": "RRRRRRRRRCCLGIPEQAY [A7-sub. Peptide]", "values": [{"measurement": "% cancer cell death", "setting": "[1]", "value": "88 ± 4", "unit": "%"}]}, {"compound": "CC[C@H](C)[C@H](NC(=O)CNC(=O)[C@@H](N)CC(C)C)C(=O)N1CCC[C@H]1C(=O)N[C@@H](CCC(=O)O)C(=O)N[C@@H](CCC(N)=O)C(=O)N[C@@H](CCC(=O)O)C(=O)N[C@@H](Cc1ccc(O)cc1)C(=O)O", "note": "[caPeptide] (H-LGIPEQEY-OH)", "values": [{"measurement": "cytotoxic activity / apoptosis", "setting": "[1]", "value": "did not have any cytotoxic activity; also recorded: no increase in apoptosis"}]}, {"compound": "RRRRRRRRRCCAGIPEQEY [A1-sub. Peptide]", "values": [{"measurement": "% cancer cell death", "setting": "[1]", "value": "8 ± 9", "unit": "%"}]}, {"compound": "RRRRRRRRRCCLGIPAQEY [A5-sub. Peptide]", "values": [{"measurement": "% cancer cell death", "setting": "[1]", "value": "45 ± 14", "unit": "%"}]}, {"compound": "FITC-RRRRRRRRRCCLGIPEQEY ({FITC}-[dR][dR][dR][dR][dR][dR][dR][dR][dR]CCLGIPEQEY; cysteine pairing not given here) [FITC-R9-caPep, R9-caPep with an N-terminal fluorescein isothiocyanate (FITC) residue]", "values": [{"measurement": "cellular uptake and nuclear localization", "setting": "U937 cells [2]", "value": "internalized by the cells and was accessible to the nucleus"}]}, {"compound": "N.N.[Cl][Pt][Cl]", "note": "[cisplatin, reference compound]", "values": [{"measurement": "sensitivity of the cells to cisplatin", "setting": "[3]; HCC1937+wild-type BRCA1 cells, cisplatin alone", "value": "relatively resistant"}, {"measurement": "IC50", "setting": "[3]; HCC1937 cells with BRCA1, with R9-PCNA peptide 60 μM, read-out: IC50 value for R9-PCNA peptide (60 μM)+cisplatin", "value": "~100", "unit": "µM"}, {"measurement": "IC50", "setting": "[4]; HCC1937 cells lacking BRCA1, with R9-PCNA peptide 60 μM, read-out: IC50 value for R9-PCNA peptide (60 μM)+cisplatin", "value": "~20", "unit": "µM"}, {"measurement": "sensitivity of the cells to cisplatin", "setting": "[4]; HCC1937 cells, cisplatin alone", "value": "relatively resistant"}]}, {"compound": "LGIPEAEY [Q131A]", "values": [{"measurement": "efficacy in MTT assay compared with the other peptides", "setting": "[4]", "value": "enhanced efficacy in comparison to wild-type peptides; also recorded: more effective of these peptides tested"}]}, {"compound": "RRRRRRRRRCCLGAPEQEY [A3-sub. Peptide]", "values": [{"measurement": "% cancer cell death", "setting": "[1]", "value": "21 ± 12", "unit": "%"}]}, {"compound": "RRRRRRRRRCCLGIPEQEA [A8-sub. Peptide]", "values": [{"measurement": "% cancer cell death", "setting": "[1]", "value": "7 ± 6", "unit": "%"}]}, {"compound": "RRRRRRRRRCCLGIPEAEY [A6-sub. Peptide]", "values": [{"measurement": "% cancer cell death", "setting": "[1]", "value": "93 ± 7", "unit": "%"}]}, {"compound": "RRRRRRRRRCCLAIPEQEY [A2-sub. Peptide]", "values": [{"measurement": "% cancer cell death", "setting": "[1]", "value": "47 ± 13", "unit": "%"}]}, {"compound": "COc1cccc2c1C(=O)c1c(O)c3c(c(O)c1C2=O)C[C@@](O)(C(=O)CO)C[C@@H]3O[C@H]1C[C@H](N)[C@H](O)[C@H](C)O1", "note": "[doxorubicin]", "values": [{"measurement": "IC50", "setting": "U937 cells [5]; read-out: IC50 of doxorubicin, U937 cells, 24 hours, doxorubicin alone", "value": "~0.14", "unit": "µM"}, {"measurement": "IC50", "setting": "U937 cells [5]; read-out: IC50 of doxorubicin, U937 cells, 24 hours, with 25 μM of R9-caPep", "value": "~0.11", "unit": "µM"}, {"measurement": "cell death", "setting": "U937 cells [6]", "value": 30, "unit": "%"}]}, {"compound": "CC[C@H](C)[C@H](NC(=O)CNC(=O)[C@H](CC(C)C)NC(=O)[C@H](CS)NC(=O)[C@H](CS)NC(=O)[C@@H](CCCNC(=N)N)NC(=O)[C@@H](CCCNC(=N)N)NC(=O)[C@@H](CCCNC(=N)N)NC(=O)[C@@H](CCCNC(=N)N)NC(=O)[C@@H](CCCNC(=N)N)NC(=O)[C@@H](CCCNC(=N)N)NC(=O)[C@@H](CCCNC(=N)N)NC(=O)[C@@H](CCCNC(=N)N)NC(=O)[C@H](N)CCCNC(=N)N)C(=O)N1CCC[C@H]1C(=O)N[C@@H](CCC(=O)O)C(=O)N[C@@H](CCC(N)=O)C(=O)N[C@@H](CCC(=O)O)C(=O)N[C@@H](Cc1ccc(O)cc1)C(=O)O", "note": "[R9-caPep]", "values": [{"measurement": "cytotoxicity for malignant breast cells (MCF7) relative to non-malignant breast cells (MCF10A)", "setting": "MCF 7 (breast cancer)", "value": "approximately five times more cytotoxic"}]}, {"compound": "LGIAEQEY [P129A]", "values": [{"measurement": "efficacy in MTT assay compared with the other peptides", "setting": "[4]", "value": "enhanced efficacy in comparison to wild-type peptides"}]}]}
